Source: ChEMBL document CHEMBL1212738, “Phenotypic and genotypic characterization of Enterobacteriaceae with decreased susceptibility to carbapenems: results from large hospital-based surveillance studies in China” (2010)
Converted amounts (≈) assume the structure as drawn.

Key:
Enterobacter cloacae [1] = assay: Antimicrobial activity against carbapenem-resistant Enterobacter cloacae SZ93 deficient in ompC by CLSI method; type: functional
Klebsiella aerogenes [2] = assay: Antimicrobial activity against Enterobacter aerogenes PU41T expressing CTX-M-14, DHA-1, qnrS1 by CLSI method; type: functional
Enterobacter cloacae [3] = assay: Antimicrobial activity against carbapenem-resistant Enterobacter cloacae NJ88 deficient in CTX-M-14, ompC/F by CLSI method; type: functional
Escherichia coli [4] = assay: Antimicrobial activity against Escherichia coli C600 transconjugant WH76T expressing IMP-4, TEM-1, CTX-M-3, qnrS1 by CLSI method
Klebsiella pneumoniae [5] = assay: Antimicrobial activity against Klebsiella pneumoniae GZ64 expressing IMP-4, ompK35/36 by CLSI method; type: functional
Enterobacter cloacae [6] = assay: Antimicrobial activity against carbapenem-resistant Enterobacter cloacae NJ91 deficient in CTX-M-14, ompC/F by CLSI method; type: functional
Klebsiella pneumoniae [7] = assay: Antimicrobial activity against Klebsiella pneumoniae ZJ68T expressing CTX-M-15 by CLSI method; type: functional
Klebsiella pneumoniae [8] = assay: Antimicrobial activity against carbapenem-resistant Klebsiella pneumoniae GZ84 deficient in SHV-11, aac(6')-Ib-cr, ompK35 by CLSI method; type: functional
Klebsiella pneumoniae [9] = assay: Antimicrobial activity against carbapenem-resistant Klebsiella pneumoniae CY1 deficient in SHV-11, DHA-1, ompK35/36 by CLSI method; type: functional
Klebsiella pneumoniae [10] = assay: Antimicrobial activity against carbapenem-resistant Klebsiella pneumoniae PU5 deficient in SHV-12, DHA-1, aac(6')-Ib-cr, ompK35/36 by CLSI method; type: functional
Escherichia coli [11] = assay: Antimicrobial activity against Escherichia coli ZJ86T expressing KPC-2 by CLSI method; type: functional
Enterobacter cloacae [12] = assay: Antimicrobial activity against carbapenem-resistant Enterobacter cloacae GX24 deficient in TEM-1, DHA-1, aac(6')-Ib, ompC by CLSI method; type: functional
Klebsiella pneumoniae [13] = assay: Antimicrobial activity against Klebsiella pneumoniae WH76 expressing IMP-4, TEM-1, SHV-14, CTX-M-3, qnrS1 by CLSI method; type: functional
Klebsiella pneumoniae [14] = assay: Antimicrobial activity against Klebsiella pneumoniae ZJ71T expressing KPC-2 by CLSI method; type: functional
Enterobacter cloacae [15] = assay: Antimicrobial activity against carbapenem-resistant Enterobacter cloacae GX56 deficient in ompC and expressing low levels of ompF DE by CLSI method; type: functional
Klebsiella pneumoniae [16] = assay: Antimicrobial activity against Klebsiella pneumoniae CY1T expressing SHV-11, DHA-1 by CLSI method; type: functional
Klebsiella pneumoniae [17] = assay: Antimicrobial activity against carbapenem-resistant Klebsiella pneumoniae FZ47 deficient in IMP-8, TEM-1, SHV-11, CTX-M-14, qnrB2, aac(6')-Ib, ompK35/36 by CLSI method; type: functional
Citrobacter freundii [18] = assay: Antimicrobial activity against Citrobacter freundii SZ63 expressing IMP-4, qnrS1by CLSI method; type: functional
Klebsiella pneumoniae [19] = assay: Antimicrobial activity against carbapenem-resistant Klebsiella pneumoniae CY75 deficient in SHV-11, DHA-1, ompK35/36 by CLSI method; type: functional
Klebsiella pneumoniae [20] = assay: Antimicrobial activity against carbapenem-resistant Klebsiella pneumoniae PU4 deficient in SHV-1, DHA-1, ompK35/36 by CLSI method; type: functional
Klebsiella aerogenes [21] = assay: Antimicrobial activity against carbapenem-resistant Enterobacter aerogenes WH85 deficient in TEM-1, CTX-M-3, ompC/F by CLSI method; type: functional
Klebsiella pneumoniae [22] = assay: Antimicrobial activity against Klebsiella pneumoniae GZ64T expressing IMP-4 by CLSI method; type: functional
Klebsiella pneumoniae [23] = assay: Antimicrobial activity against carbapenem-resistant Klebsiella pneumoniae PU105 deficient TEM-1, SHV-12, CTX-M-14, DHA-1, qnrB10/B4-like, aac(6')-Ib-cr, ompK35/36 by CLSI method; type: functional
Klebsiella pneumoniae [24] = assay: Antimicrobial activity against Klebsiella pneumoniae PU104T expressing TEM-1, CTX-M-15 by CLSI method; type: functional
Klebsiella pneumoniae [25] = assay: Antimicrobial activity against carbapenem-resistant Klebsiella pneumoniae SX67 deficient in SHV-2, CTX-M-14, DHA-1, qnrB6/S1, aac(6')-Ib-cr, ompK35/36 by CLSI method; type: functional
Escherichia coli [26] = assay: Antimicrobial activity against Escherichia coli ZJ87T expressing KPC-2 by CLSI method; type: functional
Escherichia coli [27] = assay: Antimicrobial activity against Escherichia coli PU60T expressing CMY-2 by CLSI method; type: functional
Enterobacter cloacae [28] = assay: Antimicrobial activity against carbapenem-resistant Enterobacter cloacae NJ89 deficient in CTX-M-14, ompC/F by CLSI method; type: functional
Klebsiella pneumoniae [29] = assay: Antimicrobial activity against carbapenem-resistant Klebsiella pneumoniae ZJ68 deficient in CTX-M-15, ompK35/36 by CLSI method
Klebsiella pneumoniae [30] = assay: Antimicrobial activity against carbapenem-resistant Klebsiella pneumoniae PU104 deficient in TEM-1, SHV-11, CTX-M-15, qnrS1, ompK35/36 by CLSI method; type: functional
Citrobacter freundii [31] = assay: Antimicrobial activity against Citrobacter freundii SZ62 expressing IMP-4, TEM-1, CMY-2, qnrS1, aac(6')-Ib-cr by CLSI method; type: functional
Escherichia coli [32] = assay: Antimicrobial activity against Escherichia coli PU101T expressing CMY-2 by CLSI method; type: functional
Klebsiella pneumoniae [33] = assay: Antimicrobial activity against carbapenem-resistant Klebsiella pneumoniae PU8 deficient in SHV-11, DHA-1, aac(6')-Ib-cr, ompK35/36 by CLSI method; type: functional

Structure (SMILES) | MIC (Enterobacter cloacae [1]) [µg/mL] | MIC (Klebsiella aerogenes [2]) [µg/mL] | MIC (Enterobacter cloacae [3]) [µg/mL] | MIC (Escherichia coli [4]) [µg/mL] | MIC (Klebsiella pneumoniae [5]) [µg/mL] | MIC (Enterobacter cloacae [6]) [µg/mL] | MIC (Klebsiella pneumoniae [7]) [µg/mL] | MIC (Klebsiella pneumoniae [8]) [µg/mL] | MIC (Klebsiella pneumoniae [9]) [µg/mL] | MIC (Klebsiella pneumoniae [10]) [µg/mL] | MIC (Escherichia coli [11]) [µg/mL] | MIC (Enterobacter cloacae [12]) [µg/mL] | MIC (Klebsiella pneumoniae [13]) [µg/mL] | MIC (Klebsiella pneumoniae [14]) [µg/mL] | MIC (Enterobacter cloacae [15]) [µg/mL] | MIC (Klebsiella pneumoniae [16]) [µg/mL] | MIC (Klebsiella pneumoniae [17]) [µg/mL] | MIC (Citrobacter freundii [18]) [µg/mL] | MIC (Klebsiella pneumoniae [19]) [µg/mL] | MIC (Klebsiella pneumoniae [20]) [µg/mL] | also measured
C[C@@H](O)[C@H]1C(=O)N2C(C(=O)O)=C(S[C@@H]3CN[C@H](C(=O)Nc4cccc(C(=O)O)c4)C3)[C@H](C)[C@H]12 | 0.064 (≈ 0.135 µM) | 0.032 (≈ 0.0673 µM) | 128 (≈ 269 µM) | 2 (≈ 4.21 µM) | 32 (≈ 67.3 µM) | 128 (≈ 269 µM) | 0.064 (≈ 0.135 µM) | 8 (≈ 16.8 µM) | 32 (≈ 67.3 µM) | 64 (≈ 135 µM) | 16 (≈ 33.6 µM) | 16 (≈ 33.6 µM) | 2 (≈ 4.21 µM) | 4 (≈ 8.41 µM) | 32 (≈ 67.3 µM) | 0.008 (≈ 0.0168 µM) | 8 (≈ 16.8 µM) | 4 (≈ 8.41 µM) | 64 (≈ 135 µM) | 32 (≈ 67.3 µM) | MIC (Klebsiella aerogenes [21]): 16 µg/mL (≈ 33.6 µM); MIC (Klebsiella pneumoniae [22]): 4 µg/mL (≈ 8.41 µM); MIC (Klebsiella pneumoniae [23]): 128 µg/mL (≈ 269 µM); MIC (Klebsiella pneumoniae [24]): 0.016 µg/mL (≈ 0.0336 µM); MIC (Klebsiella pneumoniae [25]): 32 µg/mL (≈ 67.3 µM); MIC (Escherichia coli [26]): 16 µg/mL (≈ 33.6 µM); MIC (Escherichia coli [27]): 0.064 µg/mL (≈ 0.135 µM); MIC (Enterobacter cloacae [28]): 128 µg/mL (≈ 269 µM); MIC (Klebsiella pneumoniae [29]): 64 µg/mL (≈ 135 µM); MIC (Klebsiella pneumoniae [30]): 64 µg/mL (≈ 135 µM); MIC (Citrobacter freundii [31]): 4 µg/mL (≈ 8.41 µM); MIC (Escherichia coli [32]): 0.25 µg/mL (≈ 0.526 µM); MIC (Klebsiella pneumoniae [33]): 32 µg/mL (≈ 67.3 µM)
NCC[C@H](O)C(=O)N[C@@H]1C[C@H](N)[C@@H](O[C@H]2O[C@H](CN)[C@@H](O)[C@H](O)[C@H]2O)[C@H](O)[C@H]1O[C@H]1O[C@H](CO)[C@@H](O)[C@H](N)[C@H]1O [AMIKACIN] | 1 (≈ 1.71 µM) | > 256 | > 256 | 1 (≈ 1.71 µM) | 1 (≈ 1.71 µM) | > 256 | > 256 | 16 (≈ 27.3 µM) | > 256 | > 256 | 32 (≈ 54.6 µM) | > 256 | 1 (≈ 1.71 µM) | 1 (≈ 1.71 µM) | > 256 | > 256 | > 256 | > 256 | 2 (≈ 3.42 µM) | > 256 | MIC (Klebsiella aerogenes [21]): 1 µg/mL (≈ 1.71 µM); MIC (Klebsiella pneumoniae [22]): 1 µg/mL (≈ 1.71 µM); MIC (Klebsiella pneumoniae [23]): > 256 µg/mL; MIC (Klebsiella pneumoniae [24]): 2 µg/mL (≈ 3.42 µM); MIC (Klebsiella pneumoniae [25]): > 256 µg/mL; MIC (Escherichia coli [26]): 1 µg/mL (≈ 1.71 µM); MIC (Escherichia coli [27]): 1 µg/mL (≈ 1.71 µM); MIC (Enterobacter cloacae [28]): > 256 µg/mL; MIC (Klebsiella pneumoniae [29]): > 256 µg/mL; MIC (Klebsiella pneumoniae [30]): 0.5 µg/mL (≈ 0.854 µM); MIC (Citrobacter freundii [31]): > 256 µg/mL; MIC (Escherichia coli [32]): 1 µg/mL (≈ 1.71 µM); MIC (Klebsiella pneumoniae [33]): 8 µg/mL (≈ 13.7 µM)
